Experimental data from patent publication US11477985B2, “Herbicidal mixtures comprising L-glufosinate or its salt and at least one photosynthesis inhibitor” (BASF SE, priority 2017, dated 2022).

Legend:
Type in all cases: in vivo
[1] = system: Avena fatua; assay: Post emergence treatment, greenhouse pot test, herbicidal activity against AVEFA
From the text: (§1) Synergism can be described as an interaction where the combined effect of two or more compounds is greater than the sum of the individual effects of each of the compounds. The presence of a synergistic effect in terms of percent control, between two mixing partners (X and Y) can be calculated using the Colby equation (Colby, S. R., 1967, Calculating Synergistic and
(§2) When the observed combined control effect is greater than the expected (calculated) combined control effect (E), then the combined effect is synergistic.
(§3) However, the weed control afforded by the compounds, mixtures or compositions is not limited to these species. The analysis of synergism or antagonism between the mixtures or compositions was determined using Colby's equation.
(§4) The culture containers used were plastic flowerpots containing loamy sand with approximately 3.0% of humus as the substrate. The seeds of the test plants were sown separately for each species and/or resistant biotype. For the pre-emergence treatment, the active ingredients, which had been suspended or emulsified in water, were applied directly after sowing by means of finely distributing nozzles. The containers were irrigated gently to promote germination and growth and subsequently covered with transparent plastic hoods until the plants had rooted. This cover caused uniform germination of the test plants, unless this had been impaired by the active ingredients. For the post-emergence treatment, the test plants were first grown to a height of 3 to 15 cm, depending on the plant habit, and only then treated with the active ingredients which had been suspended or emulsified in water. For this purpose, the test plants were either sown directly and grown in the same containers, or they were first grown separately as seedlings and transplanted into the test containers a few days prior to treatment. Depending on the species, the plants were kept at 10-25° C. or 20-35° C., respectively. The test period extended to 20 days after treatment. During this time, the plants were tended, and their response to the individual treatments was evaluated. […]

[2] = system: Abutilon theophrasti; assay: Post emergence treatment, greenhouse pot test, herbicidal activity against ABUTH; conditions: scale 0 to 100
From the text: as §1, §2, §3, §4

[3] = system: Setaria viridis; assay: Post emergence treatment, greenhouse pot test, herbicidal activity against SETVI; conditions: scale 0 to 100
From the text: as §1, §2, §3, §4

CN(C)C(=O)Nc1ccc(Cl)c(Cl)c1 [Diuron, diuron]
Herbicidal activity against AVEFA, Found ([1]; Diuron 125 g ai/ha alone, scale 0 to 100): 20
Herbicidal activity against AVEFA, Found ([1]; Diuron 250 g ai/ha alone, scale 0 to 100): 30

CN(C)C(=O)Nc1cccc(C(F)(F)F)c1 [Fluometuron, fluometuron]
Herbicidal activity against ABUTH, Found ([2]; Fluometuron 125 g ai/ha alone): 0
Herbicidal activity against ABUTH, Found ([2]; Fluometuron 250 g ai/ha alone): 20

CP(=O)(O)CC[C@H](N)C(=O)O [L-Glufosinate, (2S)-2-amino-4-[hydroxy(methyl)phosphinoyl]butyric acid]
Herbicidal activity against ABUTH, Found ([2]; L-Glufosinate 75 g ai/ha alone): 0
Herbicidal activity against AVEFA, Found ([1]; L-Glufosinate 300 g ai/ha alone, scale 0 to 100, mean of two replications): 20
Herbicidal activity against SETVI, Found ([3]; L-Glufosinate 75 g ai/ha alone): 0
Herbicidal activity against SETVI, Found ([3]; L-Glufosinate 150 g ai/ha alone): 70

O=C(Nc1ccccc1)Nc1cnns1 [Thidiazuron, thiadizuron]
Herbicidal activity against SETVI, Found ([3]; Thidiazuron 50 g ai/ha alone): 0
